What all share (assay): growth of human tumour cells (NCI), 48 h
Test [1] concerns A549 NSCLC.
Test [2] has as its system CAKI-1 renal.
For test [3], the system named is RPMI-8226 leukemia.
The test system of test [4] is SF-295 CNS.
Test [5] relates to SK-MEL-5 melanoma.
Test [6] has as its system SN12C renal.
Test [7] deals with SNB-75 CNS.
The test system of test [8] is T-47D breast.
Test [9] relates to TK-10 renal.
The test system of test [10] is UACC-62 melanoma.

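Growth conditions: 96-well plates. Treatment: test compound, 48 hours, 5 concentrations. Analysis: linear interpolation between bracketing concentrations; unreached endpoints set to highest concentration. The concentration for 50% growth inhibition is given as GI50. TGI marks complete inhibition of growth.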 Bounds are passed on as bounds.

Consider `CCN(CC)c1ccc(C(=C2C=CC(=[N+](CC)Cc3cccc(S(=O)(=O)O)c3)C=C2)c2ccc(N(CC)Cc3cccc(S(=O)(=O)O)c3)cc2)cc1`, for which the GI50 is 4.28 µM in [1]; 24 µM in test [2]; 3.32 µM in test [3]; 2.81 µM in test [4]; 10.1 µM in test [5]; 3.24 µM in test [6]. Moreover, the GI50 in test [7] was 2.75 µM; in [8], 3.14 µM; in test [9], 18.8 µM; in [10], 13 µM. Moreover, the TGI in test [1] was > 100 µM; in test [2], > 100 µM; in test [3] it was > 51.1 µM; in [4], > 47 µM; in test [5] it was 24.1 µM; in test [6], > 100 µM. Besides, the TGI in test [7] was 17.3 µM; in test [8], > 29.3 µM; in test [9] it was > 100 µM; in test [10], 87 µM.
For `COc1c(CCC[P+](c2ccccc2)(c2ccccc2)c2ccccc2)cc2c(c1OC)OCO2`, the GI50 in [1] was 3.7 µM; in test [2], 2.45 µM; in test [3], 0.233 µM; in test [4], 2.62 µM; in test [5], 1.33 µM; in [6] it was 2.42 µM. In addition, the GI50 was 1.3 µM in [7], 0.419 µM in [8], 4.71 µM in [9] and 0.569 µM in test [10]. Besides, the TGI in [1] is 38.1 µM; in test [2], 7.35 µM; in test [3], 1.72 µM; in [4] it was 8.38 µM; in test [5] it was 2.81 µM; in test [6], 10.4 µM. The TGI in test [7] worked out at 5.18 µM; in test [8], 35.3 µM; in test [9], 34.7 µM; in test [10], 5.53 µM.
For the molecule `CC(C)(C)C#CC1=C(Br)C(=O)OC1`, the GI50 was 1.3 µM in test [1]; 2.38 µM in test [2]; 0.597 µM in [3]; 6.9 µM in test [4]; > 100 µM in test [5]; 6.26 µM in test [6]. Moreover, the GI50 in [7] was 37.7 µM; in test [8] it was 16.5 µM; in test [9], 0.36 µM; in test [10], 13.2 µM. In addition, the TGI is 8.73 µM in test [1]; 6.95 µM in test [2]; 3.71 µM in test [3]; 18.2 µM in test [4]; > 100 µM in [5]; 17.7 µM in test [6]. Also, the TGI was > 100 µM in test [7], 66.8 µM in test [8], 2.26 µM in test [9] and > 45.5 µM in test [10].
As for `C=CCc1c2c(c(OC)c3ccoc13)C(=O)/C(=C/c1ccccc1OC)O2`, the GI50 in test [1] was 4.12 µM; in test [2] it was 3.15 µM; in test [3], 3.51 µM; in test [4], 3.67 µM; in [5], 3.91 µM; in test [6], 4.85 µM. Further, the GI50 in [7] was 1.44 µM; in test [8], 4.34 µM; in [9] it was 6.5 µM; in [10], 4.14 µM. The TGI was > 100 µM in [1]; 35.2 µM in test [2]; > 100 µM in test [3]; > 100 µM in test [4]; 92 µM in [5]; > 100 µM in [6]. In addition, the TGI is 4.91 µM in test [7], > 100 µM in [8], > 100 µM in test [9] and 58.4 µM in test [10].
Regarding `COC(=O)/C=C/C=C(c1ccccc1)c1ccccc1`, the GI50 in test [1] was 5.02 µM; in [2], 3.05 µM; in test [3] it was 6.36 µM; in test [4], 2.76 µM; in test [5], 3.43 µM; in test [6], 7.83 µM. Also, the GI50 in test [7] is 2.72 µM; in [8], 3.16 µM; in test [9] it was 20.3 µM; in [10], 5.43 µM. In addition, the TGI was > 100 µM in test [1]; 10.4 µM in test [2]; 95.5 µM in test [3]; 8.12 µM in test [4]; 13.8 µM in test [5]; > 100 µM in test [6]. Also, the TGI in [7] was 53.1 µM; in [8], > 100 µM; in test [9] it was > 100 µM; in test [10], 25.4 µM.
Consider `CC1SC(c2c(Cl)cccc2Cl)N(NC(=O)c2[nH]c3ccc(F)cc3c2-c2ccccc2)C1=O` (stereo not given), for which the GI50 was 1.68 µM in test [1]; 1.83 µM in [2]; 5.59 µM in [3]; 1.9 µM in test [4]; 2.72 µM in test [5]; 2.26 µM in test [6]. Moreover, the GI50 in test [7] is 1.43 µM; in [8], 2.61 µM; in [9], 2.56 µM; in test [10], 4 µM. Also, the TGI in [1] was 3.16 µM; in test [2], 4.85 µM; in [3], > 100 µM; in test [4], 3.71 µM; in test [5], 11.9 µM; in test [6], 5.86 µM. For the same molecule, the TGI in test [7] came to 3.27 µM; in test [8] it was 14 µM; in test [9], 7.12 µM; in [10] it was 32.5 µM.

The values above are taken from PubChem BioAssay (NCI).
